Experimental data taken from paper PMC12096834, “Antimicrobial peptide plectasin recombinantly produced in Escherichia coli disintegrates cell walls of gram-positive bacteria, as proven by transmission electron and atomic force microscopy” (Journal of Bacteriology, 2025).
≈ marks a conversion by molar mass, not a printed value.

Experiments:
Test in all cases: Antimicrobial activity assay (broth microdilution MIC)
Format in all cases: cell-based
[1] = tested on: Staphylococcus aureus DSM 2569 (ATCC 29213); conditions: 18 hours
From the text: (§1) The test panel included four gram-positive and four gram-negative bacterial strains, which were selected based on EUCAST recommendations and are commonly used in quality control for pathogen testing. Specifically, the test panel comprised the following four gram-positive strains: Staphylococcus aureus DSM 2569 (ATCC 29213), Streptococcus pneumoniae DSM 24048 (ATCC 49619), Listeria monocytogenes DSM 20600 (ATCC 15313), and Enterococcus faecalis DSM 2570 (ATCC 29212). The gram-negative strains included the following: Pseudomonas aeruginosa DSM 1117 (ATCC 27853), Escherichia coli DSM 1103 (ATCC 25922), Escherichia coli BL21(DE3) DSM 102052 (ATCC BAA-1025-B2), and Escherichia coli HMS174 DSM 5932 (ATCC 47011). These strains were obtained from the German Collection of Microorganisms and Cell Cultures GmbH (DSMZ, Leibnitz Institute, Braunschweig, Germany). The strains were maintained in cryo-stocks containing 20% glycerol at a temperature of −80°C. When needed, all gram-negative strains were streaked on MH-agar (Oxoid, Hampshire, UK) and all gram-positive strains on TSYE-agar, with the exception of the Listeria monocytogenes strain, for which BHI-agar was used. All strains were incubated overnight at 35°C.
(§2) The plates were made fresh on the day of the assay by first adding 50 µL of sterile water (for the gram-positive strains) or PBS buffer pH 7.4 (for the gram-negative strains) into the wells of the first to 11th column of a polystyrene 96-well plate (Greiner, 655161, Kremsmünster, Austria). An ampicillin stock solution (6,400 µg/mL) was prepared and diluted in sterile water to obtain a final ampicillin solution of 64 µg/mL. Purified plectasin, 100 µL of ampicillin solution, CASPON-plectasin, and sterile water for the negative control were each dispensed into two wells of the 12th microtiter plate column and diluted twofold from the 11th to the second column by transferring 50 µL per well of the previous column into the next one (in the end, 50 µL of the 2nd was discarded) to obtain the ranges of 0.064–64 µg/mL for ampicillin, 32–32,768 µg/mL for CASPON-plectasin, and 0.5–512 µg/mL (Streptococcus pneumoniae and Staphylococcus aureus), 1–1,024 µg/mL (Enterococcus faecalis and Listeria monocytogenes), or 4–4,096 µg/mL (gram-negative strains) for plectasin.
(§3) Bacterial inocula were prepared by suspending colonies from incubated plates described above with 3 mL 0.85% NaCl solution to obtain a turbidity corresponding to McFarland standard 0.5. The inoculated saline suspensions (1–2 × 10^8 CFU/mL) were diluted 1:100 in double concentrated MH- (all gram-negative strains, Staphylococcus aureus, and […]) or MHF- (Streptococcus pneumoniae, Listeria monocytogenes; MH-broth with 5% lysed horse blood and 20 mg/L ß-NAD) broth to obtain approximately […]. Fifty microliters of the diluted inoculum was added to the wells of the prepared microdilution plate, resulting in the final plectasin (0.25–256 µg/mL, 0.5–512 µg/mL, and 2–2,048 µg/mL), CASPON-plectasin (16–16,384 µg/mL), and ampicillin (0.032–32 µg/mL) concentrations and approximately […]. The wells of the negative control were inoculated with sterile double-concentrated MH- or MH-F broth. A schematic illustration of the plate preparation can be found in the supplementary material (Fig. S1). Plates were incubated in ambient air at 35°C for 18 hours. After incubation, the plates were shaken for 1 minute (1,000 rpm) on a platform shaker (Titramax 101, Heidolph, Schwabach, Germany) until obtaining a homogeneous suspension. The absorbances (625 nm) of each well were measured on a Tecan Spark device (Männedorf, Switzerland) and subtracted by the average absorbance of the negative control. […] The variability of the MIC results was evaluated by testing all strains against each agent in three independent assays. […]

[2] = tested on: Escherichia coli BL21(DE3) DSM 102052 (ATCC BAA-1025-B2)
From the text: as §1, §2, §3

[3] = tested on: Listeria monocytogenes DSM 20600 (ATCC 15313); conditions: MHF broth, approx 5 × 10^4 CFU/well, 35°C, 18 hours, absorbance 625 nm, three independent assays, plectasin 0.5–512 µg/mL, CASPON-plectasin 16–16,384 µg/mL
From the text: as §1, §2, §3

[4] = tested on: Streptococcus pneumoniae DSM 24048 (ATCC 49619); conditions: 18 hours
From the text: as §1, §2, §3

[5] = tested on: Escherichia coli HMS174 DSM 5932 (ATCC 47011); conditions: MH broth, 35°C, 18 hours, absorbance 625 nm, three independent tests, plectasin 2–2,048 µg/mL, CASPON-plectasin 16–16,384 µg/mL
From the text: as §1, §2, §3

[6] = tested on: Pseudomonas aeruginosa DSM 1117 (ATCC 27853); conditions: MH broth, 35°C, 18 hours, absorbance 625 nm, three independent tests, plectasin 2–2,048 µg/mL, CASPON-plectasin 16–16,384 µg/mL
From the text: as §1, §2, §3

[7] = tested on: Enterococcus faecalis DSM 2570 (ATCC 29212); conditions: MH broth, approx 5 × 10^4 CFU/well, 35°C, 18 hours, absorbance 625 nm, three independent assays, plectasin 0.5–512 µg/mL, CASPON-plectasin 16–16,384 µg/mL
From the text: as §1, §2, §3

[8] = microdilution, extinction at 625 nm, Fig. 3

CC[C@H](C)[C@@H]1NC(=O)[C@H](CO)NC(=O)[C@H](CCCCN)NC(=O)[C@@H]2CSSC[C@@H](C(=O)N[C@@H](Cc3ccc(O)cc3)C(=O)O)NC(=O)[C@H](CCCCN)NC(=O)[C@@H]3CSSC[C@H](NC(=O)[C@H](CCC(N)=O)NC(=O)[C@H](CCSC)NC(=O)[C@H](CC(=O)O)NC(=O)[C@H](CC(=O)O)NC(=O)[C@H](CCC(=O)O)NC(=O)[C@H](CC(=O)O)NC(=O)[C@H](Cc4c[nH]c5ccccc45)NC(=O)[C@@H]4CCCN4C(=O)CNC(=O)[C@H](CC(N)=O)NC(=O)[C@@H](NC(=O)CNC(=O)[C@H](Cc4ccccc4)NC(=O)CN)CSSC[C@H](NC(=O)[C@H](Cc4ccc(O)cc4)NC(=O)CNC(=O)CNC(=O)[C@H](CCCCN)NC(=O)[C@H](Cc4ccc(O)cc4)NC(=O)CNC(=O)[C@H](CCCCN)NC1=O)C(=O)N[C@@H](C)C(=O)N[C@@H](CCCCN)C(=O)NCC(=O)NCC(=O)N[C@@H](Cc1ccccc1)C(=O)N[C@@H](C(C)C)C(=O)N3)C(=O)N[C@@H](Cc1c[nH]cn1)C(=O)N[C@@H](CC(N)=O)C(=O)N[C@@H](Cc1c[nH]cn1)C(=O)N2 [Plectasin, plectasin]
MIC ([1]; broth microdilution, MH broth, approx 5 × 10^4 CFU/well, 35°C, absorbance 625 nm, three independent assays, plectasin 0.25–256 µg/mL, CASPON-plectasin 16–16,384 µg/mL): 32 µg/mL (≈ 7.27 µM) | plectasin concentration at which a distinct gradient of extinction reduction was observed [1, 8]: 8 µg/mL | growth inhibition (no MIC could be determined) ([2]; broth microdilution, MH broth, 35°C, 18 hours, absorbance 625 nm, three independent tests, plectasin 2–2,048 µg/mL, CASPON-plectasin 16–16,384 µg/mL): no growth decline | extinction value at 625 nm (growth) at the highest plectasin concentration ([2]; increased number and altered morphology of cells (Fig. S11)): four times higher | MIC [3]: 32 µg/mL (≈ 7.27 µM) | MIC ([4]; broth microdilution, MHF broth (5% lysed horse blood, 20 mg/L ß-NAD), approx 5 × 10^4 CFU/well, 35°C, absorbance 625 nm, three independent assays, plectasin 0.25–256 µg/mL, CASPON-plectasin 16–16,384 µg/mL): 4 µg/mL (≈ 0.909 µM) | plectasin concentration at which a distinct gradient of extinction reduction was observed [4, 8]: 0.5 µg/mL | growth inhibition (no MIC could be determined) [5]: no growth decline | growth inhibition (no MIC could be determined) [6]: no growth decline | MIC [7]: 128 µg/mL (≈ 29.1 µM)
